In patent US11541055B2, “Inhibitors of human immunodeficiency virus replication” (ViiV Healthcare UK (No. 5) LIMITED, priority 2018, dated 2023) one finds CC50 and EC50 data, which are given here for two molecules.

Common to all, as to format: cell-based
Data set [1] can be described thus: Compound cytotoxicity, XTT-based colorimetric assay. The following applies: human; uninfected MT2 cells, day 4, XTT. In outline: (§1)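 Run under the antiviral-assay protocol but without virus. Viability was read on day 4 and CC50 values were derived from the readout.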
For orientation: Tetrazolium assays rely on reduction of a dye to a coloured formazan, in cell work by metabolically active cells.

Data set [2] deals with recombinant NL4-3 virus (Renilla luciferase) in MT-2 cells. The data set is described as follows: HIV cell culture assay (antiviral activity, luciferase readout). In outline:
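Antiviral EC50 was derived via the median effect equation from luciferase signal. The signal came from MT-2 cultures infected for 4–5 days with a nef-deleted, Renilla luciferase-expressing NL4-3 reporter virus (made in 293T cells) in the presence of compound dilutions.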

In a further data set the test system is uninfected MT2 cells. The data set is described as follows: Compound cytotoxicity, XTT-based colorimetric assay. The following applies: day 4, XTT. The method in brief:
as §1

Like-named read-outs stand apart in the source and are kept apart here.

Regarding `CS(=O)(=O)Nc1nn(CC(F)F)c2c(-n3c([C@H](Cc4cc(F)cc(F)c4)NC(=O)Cn4nc(C(F)F)c5c4C(F)(F)[C@@H]4C[C@H]54)nc4cc(-c5cccc(C(F)(F)F)n5)ccc4c3=O)ccc(Cl)c12` [Example 138, N-[(1S)-1-{3-[4-chloro-1-(2,2-difluoroethyl)-3-methanesulfonamido-1H-indazol-7-yl]-4-oxo-7-(trifluoromethyppyridin-2-yl]-3,4-dihydroquinazolin-2-yl}-2-(3,5-difluorophenyl)ethyl]-2-[(2S,4R)-9-(difluoromethyl)-5,5-difluoro-7,8-diazatricyclo[4.3.0.0^2,^4]nona-1(6),8-dien-7-yl]acetamide], the CC50 at 4 days in data set [1] was greater than 500 nM. In data set [2] (Renilla, NL43), the EC50 came out at 0.079 nM.

`CC(C)(C)S(=O)(=O)c1cccc(-c2ccc3c(=O)n(-c4ccc(Cl)c5c(NS(=O)(=O)C6CC6)nn(CC(F)F)c45)c([C@H](Cc4cc(F)cc(F)c4)NC(=O)Cn4nc(C(F)F)c5c4C(F)(F)[C@@H]4C[C@H]54)nc3c2)c1` [Example 146, N-[(1S)-1-{3-[4-chloro-3-cyclopropanesulfonamido-1-(2,2-difluoroethyl)-1H-indazol-7-yl]-7-[3-(2-methylpropane-2-sulfonyl)phenyl]-4-oxo-3,4-dihydroquinazolin-2-yl}-2-(3,5-difluorophenyl)ethyl]-2-[(2S,4R)-9-(difluoromethyl)-5,5-difluoro-7,8-diazatricyclo[4.3.0.0^2,^4]nona-1(6),8-dien-7-yl]acetamide] registered a CC50 in the data set on uninfected MT2 cells greater than 500 nM. Moreover, in data set [2] (MT-2 cells infected for 4-5 days with recombinant NL4-3 Renilla luciferase virus, luciferase activity, read-out: EC50), the EC50 was 0.39 nM.

The CC50 is the concentration at which the toxic effect on the cells reaches its halfway point. High values mean lower toxicity to the cells, low ones greater toxicity to the cells. What is called EC50 is the concentration at which the effect is half-maximal.
